Entries after “also recorded” stand apart in the source; their conditions may differ.
Tests used:
[1] = tested on: longevity-extended mutant ore7; type: in vivo, Arabidopsis thaliana; conditions: ore7 mutant leaves at 25 DAG; 50 μM ABA or 50 μM MeJA in MES buffer, or 4.5 μM ethylene gas; 22° C., continuous light
Experimental: (§1) In order to measure the chlorophyll content, the respective sample leaves were boiled in 95% ethanol at 80° C., thereby extracting chlorophyll. The chlorophyll content was measured at absorbance of 648 nm and 664 nm, and expressed as chlorophyll concentration per fresh weight of leaves (Vermon et al., Anal. Chem., 32:1142–1150, 1960).
(§2) Further, in the present invention, a change in leaf longevity of the ore7 mutant according to treatment with phytohormones, such as ABA, MeJA and ethylene that are involved in senescence regulation was examined by measuring changes in photosynthesis activity and chlorophyll content. 12 independent leaves at 25 DAG were floated in 2 ml of MES buffer containing 50 μM ABA or 50 μM MeJA. Treatment with ethylene was carried out by culturing Arabidopsis thaliana in a glass box containing 4.5 μM ethylene gas. As a negative control group, MES buffer not containing ABA or MeJA was used. The treatments with phytohormones as described above were carried out for three days at 22° C. with continuous exposure to light. The chlorophyll content and the photosynthesis activity were measured in the same manner as described in Example 2.

[2] = tested on: wild type Arabidopsis thaliana (Col); assay: Photosynthesis activity (Fv/Fm of PS II) of leaves after phytohormone treatment; type: in vivo; conditions: wild type leaves at 25 DAG; 50 μM ABA or 50 μM MeJA in MES buffer, or 4.5 μM ethylene gas; 22° C., continuous light
Experimental: (§3) In order to measure photosynthesis activity, a method of Oh et al. (Oh S. A. et al., Plant Mol. Biol., 30: 939, 1996), was used. First, leaves at the respective DAG were dark-treated for 15 minutes and measured for fluorescence of chlorophylls using Plant Efficiency Analyzer (Hansatech). The photosynthesis activity was expressed as photochemical efficiency of photosystem II (PS II) using a fluorescent property of chlorophylls. The photochemical efficiency was expressed as the ratio of maximum variable fluorescence (Fv) to maximum value of fluorescence (Fm) (Fv/Fm). As the ratio is increased, the photosynthesis activity improves.
as §2

[3] = tested on: longevity-extended mutant ore7; type: in vivo, Arabidopsis thaliana; conditions: ore7 mutant leaves at 25 DAG; 50 μM ABA or 50 μM MeJA in MES buffer, or 4.5 μM ethylene gas; 22° C., continuous light; remark: listed apart in the source
Experimental: as §3, §2

[4] = tested on: wild type Arabidopsis thaliana (Col); assay: Chlorophyll content of leaves after phytohormone treatment; type: in vivo; conditions: wild type leaves at 25 DAG; 50 μM ABA or 50 μM MeJA in MES buffer, or 4.5 μM ethylene gas; 22° C., continuous light
Experimental: as §1, §2

[5] = tested on: wild type Arabidopsis thaliana (Col); assay: Northern blot analysis of SEN4 expression after phytohormone treatment; type: in vivo; conditions: wild type compared to ore7 mutant; 0, 3, 4 and 5 days after treatment

Compound	reduction in chlorophyll content [1]	change in photosynthesis activity [2]	change in photosynthesis activity [3]	change in chlorophyll content [4]	expression of SEN4 gene [5]
CC1=CC(=O)CC(C)(C)[C@@]1(O)/C=C/C(C)=C\C(=O)O [ABA, abscisic acid]	became blunt	significantly reduced; also recorded: rapidly decreased	slight decrease	significantly reduced	highly increased
CC/C=C\CC1C(=O)CCC1CC(=O)OC (stereo not drawn) [MeJA, methyl jasmonate]	became blunt	significantly reduced; also recorded: rapidly decreased	slight decrease	significantly reduced	highly increased
C=C [ethylene]	became blunt	significantly reduced; also recorded: rapidly decreased	slight decrease	significantly reduced	highly increased
